Where a name gives a salt, the structure may show the parent alone.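 Briefly, cells in 96-well plates were exposed to five compound concentrations for 48 h, and endpoints were estimated by linear interpolation. GI50 is the concentration that inhibits growth by half.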 Activity calls are given as the source filed them. Rule as the data show it: active = GI50 up to about 1.1 µM and inactive = higher.
What was measured:
Assay in all cases: NCI-60 cell line screen, 48 h
[1] = system: 786-0
[2] = system: ACHN
[3] = system: CCRF-CEM
[4] = system: COLO 205
[5] = system: HL-60
[6] = system: HOP-62
[7] = system: IGROV-1
[8] = system: LOX IMVI
[9] = system: MDA-MB-231
[10] = system: NCI-H23
[11] = system: NCI-H522
[12] = system: PC-3
[13] = system: RXF 393
[14] = system: SF-295
[15] = system: SK-MEL-28
[16] = system: SK-MEL-2
[17] = system: T47D
[18] = system: TK-10
[19] = system: UACC-62
[20] = system: SNB-75

| Compound | GI50 [1] | GI50 [2] | GI50 [3] | GI50 [4] | GI50 [5] | GI50 [6] | GI50 [7] | GI50 [8] | GI50 [9] | GI50 [10] | GI50 [11] | GI50 [12] | GI50 [13] | GI50 [14] | GI50 [15] | GI50 [16] | GI50 [17] | GI50 [18] | GI50 [19] | GI50 [20] |
| --- | --- | --- | --- | --- | --- | --- | --- | --- | --- | --- | --- | --- | --- | --- | --- | --- | --- | --- | --- | --- |
| Cc1ccc2c(c1)S(=O)(=O)c1ccc3ccccc3c1N2 | > 100 µM (inactive) | > 100 µM (inactive) | > 100 µM (inactive) | > 100 µM (inactive) | > 100 µM (inactive) | > 100 µM (inactive) | > 100 µM (inactive) | > 100 µM (inactive) | > 100 µM (inactive) | > 100 µM (inactive) | > 100 µM (inactive) | > 100 µM (inactive) | > 100 µM (inactive) | > 100 µM (inactive) | > 100 µM (inactive) | > 100 µM (inactive) | > 100 µM (inactive) | > 100 µM (inactive) | > 100 µM (inactive) |  |
| COC1/C=C/C(C)C(OC)CC(O)/C=C/C(C)C(C(C)C(OC)C(C)CCC(=O)C(C)C(C/C=C/N(C)C=O)OC)OC(=O)/C=C/C=C(\C)CC(OC)CC2=CC(=O)O[C@@H](C(C)C(OC)C1)[C@H]2O (some centres not stated) | 0.0977 µM (active) | 0.091 µM (active) | 0.621 µM (active) | 0.0301 µM (active) | 0.064 µM (active) | 0.0537 µM (active) | 0.0708 µM (active) | 0.0223 µM (active) | 0.0395 µM (active) | 0.26 µM (active) | 0.146 µM (active) | 0.0873 µM (active) | 0.0735 µM (active) | 0.11 µM (active) | 0.0767 µM (active) |  | 0.912 µM (active) | 0.29 µM (active) | 0.148 µM (active) | 0.0697 µM (active) |
| O=C(O)C1C(C(=O)O)C23CC2(C(=O)O)C2(C(=O)O)CCC3=C3CCCC312 (configuration not stated) | 10.3 µM (inactive) | 9.51 µM (inactive) |  | 3.81 µM (inactive) | 3.44 µM (inactive) | 4.44 µM (inactive) | 7.93 µM (inactive) | 10.6 µM (inactive) | 12.1 µM (inactive) | 7.96 µM (inactive) | 3.73 µM (inactive) | 5.45 µM (inactive) | 6.84 µM (inactive) | 4.13 µM (inactive) | 5.97 µM (inactive) | 14 µM (inactive) | 11.8 µM (inactive) | 11.1 µM (inactive) | 10.5 µM (inactive) | 11.2 µM (inactive) |
| COC(=O)c1c(O)ccc2c1c1c(n2CCc2ccc(OC)c(OC)c2)C(=O)c2ccccc2C1=O | 13.8 µM (inactive) | 18.2 µM (inactive) | 9.79 µM (inactive) | 3.57 µM (inactive) | 23.4 µM (inactive) | 16 µM (inactive) | 14.6 µM (inactive) |  | 22.4 µM (inactive) | 15.6 µM (inactive) | 2.69 µM (inactive) | 14.9 µM (inactive) | 16.8 µM (inactive) | 19.6 µM (inactive) | 11.6 µM (inactive) | 16.4 µM (inactive) | 12 µM (inactive) | 21.6 µM (inactive) | 15.2 µM (inactive) |  |
| O=C(N/N=C1\CCc2ccccc2C1)N/N=C1\CCc2ccccc2C1 | > 10 µM (inactive) | > 10 µM (inactive) | > 10 µM (inactive) | > 10 µM (inactive) | > 10 µM (inactive) | > 10 µM (inactive) |  |  | > 10 µM (inactive) | > 10 µM (inactive) | > 10 µM (inactive) | > 10 µM (inactive) | > 10 µM (inactive) | > 10 µM (inactive) |  | > 10 µM (inactive) | > 10 µM (inactive) | > 10 µM (inactive) |  |  |
| COc1ccc(CCNC(=O)c2ccccc2C2c3ccc(OCc4ccccc4)cc3Oc3cc(OCc4ccccc4)ccc32)cc1OC | > 100 µM (inactive) | > 100 µM (inactive) |  | > 100 µM (inactive) | 0.668 µM (active) | > 100 µM (inactive) | > 100 µM (inactive) | > 100 µM (inactive) | > 100 µM (inactive) | > 100 µM (inactive) | > 100 µM (inactive) | > 100 µM (inactive) | > 100 µM (inactive) | > 100 µM (inactive) | > 100 µM (inactive) | > 100 µM (inactive) | > 100 µM (inactive) | > 100 µM (inactive) | > 100 µM (inactive) |  |
| CN(CCCCCl)P(=O)(OCc1ccc([N+](=O)[O-])o1)OCC1OC(n2ccc(N)nc2=O)C(O)C1O (configuration not stated) | 13.4 µM (inactive) | 11.7 µM (inactive) |  | 1.05 µM (active) | 4.15 µM (inactive) | 10.6 µM (inactive) | 3.08 µM (inactive) | 7.24 µM (inactive) | 18.9 µM (inactive) | 5.79 µM (inactive) | 3.15 µM (inactive) | 2.39 µM (inactive) | 6.21 µM (inactive) | 13.9 µM (inactive) | 2.33 µM (inactive) | 9.79 µM (inactive) | 1.26 µM (inactive) | 37.7 µM (inactive) | 12.9 µM (inactive) | 0.571 µM (active) |
| CCOC(=O)c1c(SC(=O)c2ccc(C(C)(C)C)cc2)n(-c2ccccc2)c(=S)n(-c2ccccc2)c1=O | > 100 µM (inactive) | > 100 µM (inactive) | 29.7 µM (inactive) | > 100 µM (inactive) | > 100 µM (inactive) | > 100 µM (inactive) | > 100 µM (inactive) | > 100 µM (inactive) | > 100 µM (inactive) | > 100 µM (inactive) | > 100 µM (inactive) | > 100 µM (inactive) | > 100 µM (inactive) | > 100 µM (inactive) | > 100 µM (inactive) |  | > 100 µM (inactive) | > 100 µM (inactive) | > 100 µM (inactive) | > 100 µM (inactive) |
| COc1ccc(CCN2CCN(CCc3ccc(OC)cc3)CC2)cc1 | > 100 µM (inactive) | > 100 µM (inactive) | > 100 µM (inactive) | > 100 µM (inactive) | > 100 µM (inactive) | > 100 µM (inactive) | > 100 µM (inactive) | > 100 µM (inactive) | > 100 µM (inactive) | > 100 µM (inactive) | > 100 µM (inactive) | > 100 µM (inactive) | 26.2 µM (inactive) | 46.6 µM (inactive) | > 100 µM (inactive) | > 100 µM (inactive) | > 100 µM (inactive) | > 100 µM (inactive) | > 100 µM (inactive) |  |
| N#C[BH2-][n+]1ccc(C(=O)NNCc2ccc(F)cc2)cc1 | > 100 µM (inactive) | > 100 µM (inactive) | > 100 µM (inactive) | > 100 µM (inactive) | > 100 µM (inactive) |  | > 100 µM (inactive) | > 100 µM (inactive) | > 100 µM (inactive) |  | > 100 µM (inactive) | > 100 µM (inactive) | > 100 µM (inactive) | > 100 µM (inactive) | > 100 µM (inactive) | > 100 µM (inactive) | > 100 µM (inactive) | > 100 µM (inactive) | > 100 µM (inactive) | > 100 µM (inactive) |
| NCCCCNCCCN [SPERMIDINE TRIHYDROCHLORIDE] | > 100 µM (inactive) | > 100 µM (inactive) |  | > 100 µM (inactive) | > 100 µM (inactive) | > 100 µM (inactive) | > 100 µM (inactive) | > 100 µM (inactive) | > 100 µM (inactive) | > 100 µM (inactive) | 97.1 µM (inactive) | > 100 µM (inactive) | > 100 µM (inactive) | > 100 µM (inactive) | > 100 µM (inactive) | > 100 µM (inactive) | > 100 µM (inactive) | > 100 µM (inactive) | > 100 µM (inactive) | > 100 µM (inactive) |

Source: ChEMBL document CHEMBL1201862, “PubChem BioAssay data set” (2004)
